target: T1, Alpha carbonic anhydrase (Stylophora pistillata, UniProt B5SU02)
T1 sequence (B5SU02 whole entry): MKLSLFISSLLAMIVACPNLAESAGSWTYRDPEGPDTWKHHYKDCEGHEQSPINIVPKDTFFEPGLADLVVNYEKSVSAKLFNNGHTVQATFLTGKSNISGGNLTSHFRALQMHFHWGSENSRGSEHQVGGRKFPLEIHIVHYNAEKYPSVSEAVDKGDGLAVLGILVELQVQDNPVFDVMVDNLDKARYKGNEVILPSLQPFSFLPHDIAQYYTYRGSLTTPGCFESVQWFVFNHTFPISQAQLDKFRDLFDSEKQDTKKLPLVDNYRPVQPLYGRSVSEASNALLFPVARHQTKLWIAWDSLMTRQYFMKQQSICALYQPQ
Description: Inhibition of cloned Stylophora pistillata alpha-CA expressed in human HEK293 cells by stopped-flow CO2 assay

SMILES	Ki [µM]
Cn1nc(S(N)(=O)=O)sc1=N	0.0919
Cc1ccc(-c2cc(C(F)(F)F)nn2-c2ccc(S(N)(=O)=O)cc2)cc1 [CELECOXIB]	0.0342
O=C1NS(=O)(=O)c2ccccc21 [SACCHARIN]	0.0403
NNc1ccccc1S(N)(=O)=O	2.51
NS(=O)(=O)c1nnc(NS(=O)(=O)c2ccccc2)s1 [BENZOLAMIDE]	0.0204
NS(=O)(=O)c1ccc(C(=O)O)cc1 [CARZENIDE]	0.435
Nc1ccc(S(=O)(=O)NCCc2ccc(S(N)(=O)=O)cc2)cc1	0.0197
Nc1ccc(S(N)(=O)=O)cc1Br	0.104
Nc1cc(C(F)(F)F)c(S(N)(=O)=O)cc1S(N)(=O)=O [2,4-DISULFAMYLTRIFLUOROMETHYLANILINE]	0.367
Nc1ccc(S(N)(=O)=O)cc1F	0.0751
Nc1ccc(S(=O)(=O)NCc2ccc(S(N)(=O)=O)cc2)cc1	0.0298
CC1(C)O[C@@H]2[C@@H](CO[C@@]3(COS(N)(=O)=O)OC(C)(C)O[C@@H]23)O1 [TOPIRAMATE]	0.0291
CCN[C@H]1CN(CCCOC)S(=O)(=O)c2sc(S(N)(=O)=O)cc21 [BRINZOLAMIDE]	0.0482
Nc1ccc(S(N)(=O)=O)cc1Cl	0.0875
Nc1nccc(Nc2ccc(S(N)(=O)=O)cc2)n1	0.0254
NCc1ccc(S(N)(=O)=O)cc1 [MAFENIDE]	0.0825
Cc1ccc(S(N)(=O)=O)cc1 [P-TOLUENESULFONAMIDE]	0.614
Nc1ccc(S(N)(=O)=O)cc1 [SULFANILAMIDE]	0.364
NS(=O)(=O)c1ccc(S(=O)(=O)Nc2cccc3c(Cl)c[nH]c23)cc1	0.163
NS(=O)(=O)c1ccc(CO)cc1	0.768
NCCc1ccc(S(N)(=O)=O)cc1	0.0943
Nc1ccc(S(=O)(=O)Nc2nnc(S(N)(=O)=O)s2)cc1	0.0276
NS(=O)(=O)c1ccc(CCO)cc1	0.77
Nc1ccc(S(N)(=O)=O)cc1I	0.0883
Nc1nnc(S(N)(=O)=O)s1	0.105
Nc1cc(Cl)c(S(N)(=O)=O)cc1S(N)(=O)=O	0.295

Source: ChEMBL document CHEMBL1154077, “Carbonic anhydrase inhibitors. Inhibition studies of a coral secretory isoform by sulfonamides” (Bioorg Med Chem, 2009)
